Consider eight molecules from patent publication US20040260318A1, “Anastomotic connector devices” (Angiotech International AG, priority 2003, published 2004).

As a reminder, the IC50 is the midpoint of a concentration-inhibition curve.

For one assay, the system named is collagenase expression. Description: Effect of other anti-microtubule agents on IL-1-induced collagenase expression in primary chondrocytes. The format is cell-based, calf. To be noted: pre-incubation of chondrocytes 6 hours, then IL-1 20 ng/ml 18 hours; FIGS. 7A-H. The procedure: Primary chondrocyte cultures were freshly isolated from calf cartilage. The cells were plated at 2.5×10^6 per ml in 100×20 mm culture dishes and incubated in Ham's F12 medium containing 5% FBS overnight at 37° C. The cells were starved in serum-free medium overnight and then treated with anti-microtubule agents at various concentrations for 6 hours. IL-1 (20 ng/ml) was then added to each plate and the plates incubated for an additional 18 hours. Total RNA was isolated by the acidified guanidine isothiocyanate method and subjected to electrophoresis on a denatured gel. Denatured RNA samples (15 μg) were analyzed by gel electrophoresis in a 1 % denatured gel, transferred to a nylon membrane and hydridized with the ^32P-labeled collagenase cDNA probe. ^32P-labeled glyceraldehyde phosphate […] (GAPDH) cDNA as an internal standard to ensure roughly equal loading. The exposed films were scanned and quantitatively analyzed with ImageQuant.

The next assay has as its system human fibroblasts. Description: Screening assay for effect on cell proliferation (CYQUANT fluorescence). The format is cell-based. To be noted: Fibroblast, 72 hours incubation, FIG. 2. The procedure: Fibroblasts at 70-90% confluency are trypsinized, replated at 600 cells/well in media in 96-well plates and allowed to attachment overnight. Mitoxantrone is prepared in DMSO at a concentration of 10^−2 M and diluted 10-fold to give a range of stock concentrations (10^−8 M to 10^−2 M). Drug dilutions are diluted 1/1000 in media and added to cells to give a total volume of 200 μL/well. Each drug concentration is tested in triplicate wells. Plates containing fibroblasts and mitoxantrone are incubated at 37° C. for 72 hours (In vitro toxicol. (1990) 3:219; Biotech. Histochem. (1993) 68: 29; Anal. Biochem. (1993) 213:426).
To terminate the assay, the media is removed by gentle aspiration. A 1/400 dilution of CYQUANT 400× GR dye indicator (Molecular Probes; Eugene, Ore.) is added to […] Cell Lysis buffer, and 200 μL of the mixture is added to the wells of the plate. Plates are incubated at room temperature, protected from light for 3-5 minutes. Fluorescence is read in a fluorescence microplate reader at ˜480 nm excitation wavelength and ˜520 nm emission maxima. […] An average of n=4 replicate experiments is used to determine IC50 values.

Assay [1] relates to MCP-1 production by THP-1 cells. Description: MCP-1 production by macrophages (opsonized zymosan stimulated, ELISA). The format is cell-based. To be noted: Homo sapiens, 24 hours, 1 mg/mL opsonized zymosan, FIG. 11. The procedure: (§1) The human macrophage cell line, THP-1 is plated in a 12 well plate such that each well contains 1×10^6 cells in 2 mL of media containing 10% FCS. Opsonized zymosan is prepared by resuspending 20 mg of zymosan A in 2 mL of ddH2O and homogenizing until a uniform suspension is obtained. Homogenized zymosan is pelleted at 250 g and resuspended in 4 mL of human serum for a final concentration of 5 mg/mL. and incubated in a 37° C. water bath for 20 minutes to enable opsonization. Geldanamycin is prepared in DMSO at a concentration of 10^−2 M and serially diluted 10-fold to give a range of stock concentrations (10^−8 M to 10^−2 M).
THP-1 cells are stimulated to produce MCP-1 by the addition of 1 mg/mL opsonized zymosan. Geldanamycin is added to THP-1 cells by directly adding DMSO stock solutions, prepared earlier, at a 1/1000 dilution, to each well. […]
After a 24 hour stimulation, supernatants are collected to quantify MCP-1 production. MCP-1 concentrations in the supernatants are determined by ELISA using recombinant human MCP-1 to obtain a standard curve. […] The dilution of Capture Antibody used is lot-specific and is determined empirically. […] Stop Solution (2 N H2SO4) is then added to the wells and a yellow colour reaction is read at 450 nm with λ correction at 570 nm. Mean absorbance is determined from triplicate data readings and the mean background is subtracted. […]
(In general: An ELISA detects its analyte on a solid surface through an enzyme-linked reagent.)

For assay [2], the system named is IL-1β production by THP-1 cells. As to the kind of experiment: IL-1β production by macrophages (opsonized zymosan stimulated, ELISA). As to conditions: Homo sapiens, 24 hours, 1 mg/mL opsonized zymosan, FIG. 9. In kind it is cell-based. On the procedure: as §1
THP-1 cells are stimulated to produce IL-1β by the addition of 1 mg/mL opsonized zymosan. Geldanamycin is added to THP-1 cells by directly adding DMSO stock solutions, prepared earlier, at a 1/1000 dilution, to each well. […]
After a 24 hour stimulation, supernatants are collected to quantify IL-1β production. IL-1β concentrations in the supernatants are determined by ELISA using recombinant human IL-1β to obtain a standard curve. […] The dilution of Capture Antibody used is lot-specific and is determined empirically. […] Stop Solution (2 N H2SO4) is then added to the wells and a yellow colour reaction is read at 450 nm with λ correction at 570 nm. Mean absorbance is determined from triplicate data readings and the mean background is subtracted. […]

For assay [3], the system named is IL-8 production by THP-1 cells. Description: IL-8 production by macrophages (opsonized zymosan stimulated, ELISA). The format is cell-based. To be noted: Homo sapiens, 24 hours, 1 mg/mL opsonized zymosan, FIG. 10. The procedure:
as §1
THP-1 cells are stimulated to produce IL-8 by the addition of 1 mg/mL opsonized zymosan. Geldanamycin is added to THP-1 cells by directly adding DMSO stock solutions, prepared earlier, at a 1/1000 dilution, to each well. […]
After a 24 hour stimulation, supernatants are collected to quantify IL-8 production. IL-8 concentrations in the supernatants are determined by ELISA using recombinant human IL-8 to obtain a standard curve. […] The dilution of Capture Antibody used is lot-specific and is determined empirically. […] Stop Solution (2 N H2SO4) is then added to the wells and a yellow colour reaction is read at 450 nm with λ correction at 570 nm. Mean absorbance is determined from triplicate data readings and the mean background is subtracted. […]

With `[F][Al]([F])[F]` [AIF3], in the assay with collagenase expression, the “concentration (as low as) preventing IL-1-induced collagenase expression” value (“concentration” for short) came to 100 nM.
Regarding `O=C1c2c(O)ccc(O)c2C(=O)c2c(NCCNCCO)ccc(NCCNCCO)c21` [Mitoxantrone, 9,10-Anthracenedione, 1,4-dihydroxy-5,8-bis[[2-[(2-hydroxyethyl)amino]ethyl]amino]-], the IC50 in the assay on human fibroblasts came to 0.02 µM.
Turning to `[2H]O[2H]` [deuterium oxide], the “concentration” value in the assay with collagenase expression stood at 100 nM.
Take `COC1=C2C[C@@H](C)C[C@H](OC)[C@H](O)[C@@H](C)/C=C(\C)[C@H](OC(N)=O)[C@@H](OC)/C=C\C=C(/C)C(=O)NC(=CC1=O)C2=O` [geldanamycin]: the IC50 in assay [1] was 0.007 µM; in assay [2] it was 0.02 µM; in assay [3] it was 0.027 µM.
As to hexylene glycol, in the assay with collagenase expression, the “concentration” value was found to be 100 nM.
For the molecule `CCOC(=O)CN` [glycine ethyl ester], the “concentration” value in the assay on collagenase expression stood at 100 nM.
Turning to `N#CC1=C(N)Oc2c(ccc3ccccc23)C1c1cccc([N+](=O)[O-])c1` (stereo not shown) [LY290181], the “concentration” value in the assay on collagenase expression stood at 100 nM.
Same read-out and setting: in the case of “ethylene glycol bis-(succinimidylsuccinate)” it was 100 nM.
